Measurements: BindingDB's records for doi:10.1016/j.bmcl.2009.04.143 (Incyte, 2009)
pIC50: −log10 of the molar value.

Experiment: Inhibition of HER2 extracellular domain sheddase activity in human BT474 cells after 72 hrs by ELISA
For `CN1CCN(C(=O)CC2CC[C@H](C(=O)N3CCN(c4ccccc4)CC3)[C@@H](C(=O)NO)C2)CC1` (mixture of isomers) [(1S,2S,5RS)-N-hydroxy-5-(2-(4-methylpiperazin-1-yl)-2-oxoethyl)-2-(4-phenylpiperazine-1-carbonyl)cyclohexanecarboxamide], the pIC50 was 7.00. In the case of `O=C(NO)[C@H]1CC(CC(=O)N2CC[C@@H](O)C2)CC[C@@H]1C(=O)N1CCN(c2ccccc2)CC1` (mixture of isomers) [(1S,2S,5RS)-N-hydroxy-5-(2-((R)-3-hydroxypyrrolidin-1-yl)-2-oxoethyl)-2-(4-phenylpiperazine-1-carbonyl)cyclohexanecarboxamide], the pIC50 was 6.65. Compound `O=C(NO)[C@H]1CC(CC(=O)N2CCOCC2)CC[C@@H]1C(=O)N1CCN(c2ccccc2)CC1` (mixture of isomers) [(1S,2S,5RS)-N-hydroxy-5-(2-morpholino-2-oxoethyl)-2-(4-phenylpiperazine-1-carbonyl)cyclohexanecarboxamide] has a pIC50 of 6.68. With `CN1CC(CC(=O)N2CCCCC2)C[C@H](C(=O)NO)[C@H]1C(=O)N1CCN(c2ccccc2)CC1` (mixture of isomers) [(2S,3S,5RS)-N-hydroxy-1-methyl-5-(2-oxo-2-(piperidin-1-yl)ethyl)-2-(4-phenylpiperazine-1-carbonyl)piperidine-3-carboxamide] the pIC50 was 6.99. Work on `O=C(NO)[C@H]1CC(CC(=O)N2CCCC2)CN[C@@H]1C(=O)N1CCN(c2ccccc2)CC1` (mixture of isomers) [(2S,3S,5RS)-N-hydroxy-5-(2-oxo-2-(pyrrolidin-1-yl)ethyl)-2-(4-phenylpiperazine-1-carbonyl)piperidine-3-carboxamide] yielded a pIC50 of 7.55. Work on `O=C(NO)[C@H]1CC2(CC[C@@H]1C(=O)N1CCN(c3ccccc3)CC1)CC2` [(5S,6S)-N-hydroxy-6-(4-phenylpiperazine-1-carbonyl)spiro[2.5]octane-5-carboxamide] yielded a pIC50 of 7.00.
